Source: paper PMC8713283 (Journal of Medicinal Chemistry, 2021)

How the values were obtained:
[1] = Log D(dec/w) shake flask partition coefficient; format: physicochemical; conditions: 1,9-decadiene and PBS pH 7.4 shake flask partition coefficient; for logD hydrocarbon water: 1,9-decadiene/PBS
[2] = human
P-gp (human MDR1) = assay: in vitro; conditions: dog; for Papp A→B at 5 µM / Papp B→A at 5 µM: MDCK-MDR1; for efflux ratio at 5 µM: MDCK-MDR1, Efflux ratio B-A/A-B, MDCK-MDR1, 5 µM, N = 2
Wherever Plasma stability is given: time not given here.

SMILES	logD hydrocarbon water [1]	Plasma stability [2]	Papp A→B at 5 µM (P-gp (human MDR1))	Papp B→A at 5 µM (P-gp (human MDR1))	efflux ratio at 5 µM (P-gp (human MDR1))	LogD (dec/w) [1]
COCC(=O)NCCCCCC(=O)N[C@H](C(=O)N1C[C@H](O)C[C@H]1C(=O)NCc1ccc(-c2scnc2C)cc1)C(C)(C)C [Compound 1, (2S,4R)-4-Hydroxy-1-((S)-2-(6-(2-methoxyacetamido)hexanamido)-3,3-dimethylbutanoyl)-N-(4-(4-methylthiazol-5-yl)benzyl)pyrrolidine-2-carboxamide]	-2.2	126 ± 4%	0.5 ×10⁻⁶ cm/s	1.7 ×10⁻⁶ cm/s	3	
CCCC(=O)NCCCCCC(=O)N[C@H](C(=O)N1C[C@H](O)C[C@H]1C(=O)NCc1ccc(-c2scnc2C)cc1)C(C)(C)C [Compound 2, (2S,4R)-1-((S)-2-(6-Butyramidohexanamido)-3,3-dimethylbutanoyl)-4-hydroxy-N-(4-(4-methylthiazol-5-yl)benzyl)pyrrolidine-2-carboxamide]	-2.2	83 ± 5%	0.4 ×10⁻⁶ cm/s	2.9 ×10⁻⁶ cm/s	7	
Cc1ncsc1-c1ccc(CNC(=O)[C@@H]2C[C@@H](O)CN2C(=O)[C@@H](NC(=O)CCCCCNC(=O)C2CCCCC2)C(C)(C)C)cc1 [Compound 4, (2S,4R)-1-((S)-2-(6-(Cyclohexanecarboxamido)hexanamido)-3,3-dimethylbutanoyl)-4-hydroxy-N-(4-(4-methylthiazol-5-yl)benzyl)pyrrolidine-2-carboxamide]	-1.4	168 ± 20%	0.3 ×10⁻⁶ cm/s	10.3 ×10⁻⁶ cm/s	33	
Cc1ncsc1-c1ccc(CNC(=O)[C@@H]2C[C@@H](O)CN2C(=O)[C@@H](NC(=O)CCCCCNC(=O)CC23CC4CC(CC(C4)C2)C3)C(C)(C)C)cc1 [Compound 5, (2S,4R)-1-((S)-2-(6-(2-(Adamantan-1-yl)acetamido)hexanamido)-3,3-dimethylbutanoyl)-4-hydroxy-N-(4-(4-methylthiazol-5-yl)benzyl)pyrrolidine-2-carboxamide]	-0.2	74 ± 8%	0.2 ×10⁻⁶ cm/s	23.7 ×10⁻⁶ cm/s	158	
Cc1ncsc1-c1ccc(CNC(=O)[C@@H]2C[C@@H](O)CN2C(=O)[C@@H](NC(=O)CCCCCNC(=O)CC(c2ccccc2)c2ccccc2)C(C)(C)C)cc1 [Compound 6, (2S,4R)-1-((S)-2-(6-(3,3-Diphenylpropanamido)hexanamido)-3,3-dimethylbutanoyl)-4-hydroxy-N-(4-(4-methylthiazol-5-yl)benzyl)pyrrolidine-2-carboxamide]	-0.3	149 ± 9%	0.1 ×10⁻⁶ cm/s	18.5 ×10⁻⁶ cm/s	133	
CCCCOc1ccc(-c2ccc(C(=O)OCCCCCC(=O)N[C@H](C(=O)N3C[C@H](O)C[C@H]3C(=O)NCc3ccc(-c4scnc4C)cc3)C(C)(C)C)cc2)cc1 [Compound 14, 6-(((S)-1-((2S,4R)-4-Hydroxy-2-((4-(4-methylthiazol-5-yl)benzyl)carbamoyl)pyrrolidin-1-yl)-3,3-dimethyl-1-oxobutan-2-yl)amino)-6-oxohexyl 4′-butoxy-[1,1′-biphenyl]-4-carboxylate]		119 ± 28%				BLD^h
C[C@H]1O[C@@H](O[C@H]2[C@@H](O)C[C@H](O[C@H]3[C@@H](O)C[C@H](O[C@H]4CC[C@@]5(C)[C@H](CC[C@@H]6[C@@H]5C[C@@H](O)[C@]5(C)[C@@H](C7=CC(=O)OC7)CC[C@]65O)C4)O[C@@H]3C)O[C@@H]2C)C[C@H](O)[C@@H]1O [Digoxin, reference compound]			0.8 ×10⁻⁶ cm/s	21.5 ×10⁻⁶ cm/s	26.3	
CC(C)NCC(O)COc1cccc2ccccc12 (stereo not drawn) [Propranolol, reference compound]			49.1 ×10⁻⁶ cm/s	41.6 ×10⁻⁶ cm/s	0.8	
